Test results: patent US7396842B2, “Five-membered cyclic compounds” (Dianippon Sumitomo Pharma Co., Ltd., priority 2002, dated 2008)
Read-outs that look alike come from different tables or passages of the source.

What was measured:
Hartley male guinea pigs = experiment: Late asthmatic model in guinea pigs (ovalbumin sensitization and challenge, respiratory function sGaw); format: in vivo, guinea pig
Procedure: Experiment 2 Evaluation of the Compound in Late Asthmatic Model in Guinea Pigs
The evaluation test was carried out using the compound obtained in Example 1.
Hartley male guinea pigs (purchased from Japan SLC) were prefed for about 1 week after purchasing them, and exposed to a 2% (w/v) solution of ovalbumin (OA) in saline solution in a plastic box (4 animals/box) for 5 minutes and made them inhale it by using an ultrasonic nebulizer (OMRON NE-U12, conditions: maximum amount of atomization and maximum airflow) for sensitization (Day 0). The animals were subjected to the same procedures on the 7th day. On the 14th and 15th days, each one animal was made to inhale a 2% OA for 5 minutes for antigen-challenge. One hour prior to the antigen-challenge, pyrilamine maleate (antihistamic agent; dissolved in saline solution, 10 mg/2 ml/kg) was intraperitoneally administered to each animal. A test compound was suspended in a 0.5% methyl cellulose (MC), and administered intraperitoneally twice to each animal at 2 hours prior to, and 6 hours after the antigen-challenge at a dose of 100 mg/5 ml/kg. To the control group, a 0.5% MC was administered in the same manner instead of a test compound.
The measurement and analysis of the respiratory function were carried out by a modified method of the method of Hutson et al., (cf., Penny A. Hutson et al., Am Rev Respir Dis 1988 137, 548-557). Before the antigen-challenge (before the administration of the drug) and 5 minutes, and 3, 17 and 20 hours after the antigen-challenge, the respiratory function of each animal was measured, and the wave pattern was recorded using Maclab Chart v 3.4 (AD instruments), and the analysis of the respiratory function was carried out later by using thereof. The specific airway conductance (sGaw) was calculated, and the degree of the improvement of the respiratory function was evaluated by using it as an index.

[1] = target: T1, SMBS on rat lung membranes (Rattus norvegicus, UniProt A0A8I6A822); experiment: Receptor binding of the compound in rat lung membranes ([125I]-iodo-cyanopindolol ligand binding assay; Experiments 1 and 4); conditions: rat lung membranes, read-out: Binding Activity (30 μM)
T1 construct: from tissue; host or cells: rat lung membranes (SD male rats)

[2] = tested on: leukocyte infiltration into the airway; experiment: Leukocyte infiltration into the airway in the guinea pig models (BALF cell counts); format: in vivo
Procedure: Evaluation of the Compound in the Leukocyte Infiltration into the Airway in the Guinea Pig Models:
In the same manner to in Experiment 2, the sensitization, the antigen challenge, and the administration of pyrilamine maleate and a medicament were carried out.
The recovery of bronchoalveolar lavage fluid (BALF) was carried out at 24 hours after the antigen challenge. Namely, the animals were anesthetized by intraperitoneal administration of pentbarbital (50 mg/ml) at a dose of 0.5 ml per animal, and the animals were subjected to an abdominal operation after sufficiently anesthetized. The perineal abdominal aorta was cut and the animals were killed by venesection. The diaphragm was incised and the neck was also incised to expose the trachea. After the trachea was cut, a cannula was inserted thereto, and an ice-cooled saline solution (5 ml) was injected by using a 5 ml syringe. Then, the injection and the suction were repeated three times by using the same solution for recovery. The fluid was collected and filtered through a stainless mesh, and collected in a tube on the ice. These procedures were repeated twice, and the recovery fluid was collected into the same tube (cases wherein the fluid volume was not more than 7 ml were not employed as data).
After the recovery, the fluid volume to be recovered was measured with the eye, and the fluid was centrifuged at 1500 rpm at 4° C. for 3 minutes, and the supernant was discarded. The residue was subjected to hemolysis under hypooncotic conditions. The mixture was centrifuged at 1500 rpm at 4° C. for 3 minutes, and the supernatant was discarded. The cells thus collected were suspended in a phosphoric buffered saline solution (PBS (−))(1 ml) containing a 0.5% BSA. The total number of cells were counted in this suspension by an automated leukocyte counter. After the measurement, a slide preparation was prepared by using Cytospin, which was further stained with a Diff Quick Stainning Kit.

[3] = BALF recovered at 24 hours after the antigen challenge, guinea pig
[4] = versus control group, BALF 24 hours after antigen challenge, 100 mg/5 ml/kg i.p. twice

T1 sequence (A0A8I6A822 27-587): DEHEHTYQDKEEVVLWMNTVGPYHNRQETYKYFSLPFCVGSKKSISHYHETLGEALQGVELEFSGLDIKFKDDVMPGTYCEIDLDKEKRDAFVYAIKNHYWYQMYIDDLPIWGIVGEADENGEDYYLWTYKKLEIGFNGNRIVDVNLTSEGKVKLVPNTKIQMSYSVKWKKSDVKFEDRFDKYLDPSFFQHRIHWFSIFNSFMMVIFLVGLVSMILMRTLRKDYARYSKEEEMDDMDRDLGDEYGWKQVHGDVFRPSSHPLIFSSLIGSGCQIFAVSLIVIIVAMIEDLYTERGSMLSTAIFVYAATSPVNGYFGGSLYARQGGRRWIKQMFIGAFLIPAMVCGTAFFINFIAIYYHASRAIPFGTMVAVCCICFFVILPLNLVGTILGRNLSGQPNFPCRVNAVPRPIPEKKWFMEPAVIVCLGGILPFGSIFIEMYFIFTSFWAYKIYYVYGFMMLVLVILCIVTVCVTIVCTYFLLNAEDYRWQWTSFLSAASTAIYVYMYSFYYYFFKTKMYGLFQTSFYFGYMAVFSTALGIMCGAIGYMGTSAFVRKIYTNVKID

| Structure (SMILES) | inhibitory rate of LAR (from rate of change of sGaw) (Hartley male guinea pigs; 20-hr value, versus control group, 100 mg/5 ml/kg i.p. twice) | Rate of change of sGaw, 5 minutes (Hartley male guinea pigs; 5 minutes after antigen challenge (IAR), 100 mg/5 ml/kg i.p. 2 h prior to and 6 h after challenge) [%] | Rate of change of sGaw, 20 hours (Hartley male guinea pigs; 20 hours after antigen challenge (LAR), 100 mg/5 ml/kg i.p. 2 h prior to and 6 h after challenge) [%] | inhibition of IAR induced immediately after the antigen challenge (Hartley male guinea pigs; result in words, 100 mg/5 ml/kg i.p. twice) | inhibition at 30 µM ([1]; Table 37, compound concentration 30 μM, [125I]-iodo-cyanopindolol, Experiment 1) [%] | Number of eosinophils (×10^5) [2, 3] | Number of lymphocytes (×10^5) [2, 3] | Total number of cells (×10^5) [2, 3] | reduction of number of eosinophils in BALF [2, 4] [%] | reduction of number of lymphocytes in BALF [2, 4] [%] | reduction of total number of cells in BALF [2, 4] [%] | inhibition at 30 µM ([1]; Table 44, concentration tested 30 μM, Experiment 4) [%] | melting point [°C] |
| --- | --- | --- | --- | --- | --- | --- | --- | --- | --- | --- | --- | --- | --- |
| CN(C)CCCn1c(-c2ccc(Br)cc2)csc1=Nc1ccccc1 [Example 1, N-{4-(4-bromophenyl)-3-[3-(dimethylamino)propyl]thiazol-2(3H)-ylidene}aniline] | about 60% | −33.8 ± 6.8 | −14.2±15.0 | tendency of inhibiting the IAR | 61.3 | 13.8 ± 5.1 ×10^5 | 2.0 ± 0.6 ×10^5 | 62.1 ± 8.6 ×10^5 | 79 | 70 | 82 |  |  |
| COc1ccc(C(=O)/N=c2\scc(-c3ccc(OC(F)(F)F)cc3)n2CCCNC(C)=O)c(OC)c1 [Example 446, N-[3-[3-(Acetoamino)propyl]-4-[4-(trifluoromethoxy)phenyl]-1,3-thiazol-2(3H)-ylidene]-2,4-dimethoxybenzamide] |  |  |  |  |  |  |  |  |  |  |  | 97 | 131 to 132 |
| Cl.NCCCn1c(-c2ccc(Br)cc2)csc1=Nc1ccccc1 |  |  |  |  |  |  |  |  |  |  |  |  | 241 to 242 |
